Measured values: patent US12077503B2, “Substituted cyclic amides and their use as herbicides” (FMC CORPORATION, priority 2015, dated 2024)

What was measured:
Type in all cases: in vivo
[1] = tested on: barnyardgrass (Echinochloa crus-galli); test: Test G Pre-Emergence Protocol; details: Echinochloa crus-galli, pre-emergence, 312 h, evaluated after 13 days
In short: (§1)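 Herbicidal effect was rated 13 days post-application on a scale where 100 equals total damage. Spraying took place the day after sowing, using 15.625, 62.5 or 250 g/ha of compound in a 50:50 acetone/water solution with 0.5% Tween 20.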

corn (Zea mays) [2] = test: Test G Pre-Emergence Protocol; details: Zea mays, pre-emergence, 312 h, evaluated after 13 days
In short: as §1

[3] = tested on: giant foxtail (Setaria faberi); test: Test G Pre-Emergence Protocol; details: Setaria faberi, pre-emergence, 312 h, evaluated after 13 days
In short: as §1

[4] = tested on: ivy-leaved morning glory (Ipomoea hederacea); test: Test G Pre-Emergence Protocol; details: Ipomoea, pre-emergence, 312 h, evaluated after 13 days
In short: as §1

[5] = tested on: redroot pigweed (Amaranthus retroflexus); test: Test G Pre-Emergence Protocol; details: Amaranthus retroflexus, pre-emergence, 312 h, evaluated after 13 days
In short: as §1

[6] = tested on: velvetleaf (Abutilon theophrasti); test: Test G Pre-Emergence Protocol; details: Abutilon theophrasti, pre-emergence, 312 h, evaluated after 13 days
In short: as §1

[7] = tested on: barnyardgrass (Echinochloa crus-galli); test: Test G Post-Emergence Protocol; details: Echinochloa crus-galli, post-emergence, 312 h
In short: (§2)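 A glasshouse post-emergence test: 8-day-old plants sprayed at 15.625, 62.5 or 250 g/ha, then grown at 24/16 °C day/night with 14 h light and 65% humidity. Damage rated 13 days later, 0–100.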

corn (Zea mays) [8] = test: Test G Post-Emergence Protocol; details: Zea mays, post-emergence, 312 h
In short: as §2

[9] = tested on: giant foxtail (Setaria faberi); test: Test G Post-Emergence Protocol; details: Setaria faberi, post-emergence, 312 h
In short: as §2

[10] = tested on: ivy-leaved morning glory (Ipomoea hederacea); test: Test G Post-Emergence Protocol; details: Ipomoea, post-emergence, 312 h
In short: as §2

[11] = tested on: redroot pigweed (Amaranthus retroflexus); test: Test G Post-Emergence Protocol; details: Amaranthus retroflexus, post-emergence, 312 h
In short: as §2

[12] = tested on: velvetleaf (Abutilon theophrasti); test: Test G Post-Emergence Protocol; details: Abutilon theophrasti, post-emergence, 312 h
In short: as §2

CN1C[C@@H](c2cc(Cl)nc(Cl)c2)[C@H](C(=O)Nc2cccc(F)c2F)C1=O (racemic) [Compound 1494]
pest or weed control at 15.625 g/ha ([1]; 15.625 g ai/ha, read-out: Barnyard grass damage rating (100=total damage to plant; 0=no damage to plant)): 80%
pest or weed control at 62.5 g/ha ([1]; 62.5 g ai/ha, 100=total damage to plant, 0=no damage to plant, read-out: plant damage rating, Barnyardgrass): 80%
pest or weed control at 250 g/ha ([1]; 250 g ai/ha, read-out: Barnyardgrass damage rating (100=total damage to plant; 0=no damage to plant)): 90%
plant injury at 15.625 g/ha (corn (Zea mays) [2]; 15.625 g ai/ha, read-out: Corn damage rating (100=total damage to plant; 0=no damage to plant)): 0%
plant injury at 62.5 g/ha (corn (Zea mays) [2]; 62.5 g ai/ha, 100=total damage to plant, 0=no damage to plant, read-out: plant damage rating, Corn): 20%
plant injury at 250 g/ha (corn (Zea mays) [2]; 250 g ai/ha, read-out: Corn damage rating (100=total damage to plant; 0=no damage to plant)): 60%
pest or weed control at 15.625 g/ha ([3]; 15.625 g ai/ha, read-out: Foxtail, Giant damage rating (100=total damage to plant; 0=no damage to plant)): 70%
pest or weed control at 62.5 g/ha ([3]; 62.5 g ai/ha, 100=total damage to plant, 0=no damage to plant, read-out: plant damage rating, Foxtail, Giant): 80%
pest or weed control at 250 g/ha ([3]; 250 g ai/ha, read-out: Foxtail, Giant damage rating (100=total damage to plant; 0=no damage to plant)): 80%
pest or weed control at 15.625 g/ha ([4]; 15.625 g ai/ha, read-out: Morning-glory, Ivy-leaved damage rating (100=total damage to plant; 0=no damage to plant)): 0%
pest or weed control at 62.5 g/ha ([4]; 62.5 g ai/ha, 100=total damage to plant, 0=no damage to plant, read-out: plant damage rating, Morningglory, Ivy-leaved): 0%
pest or weed control at 250 g/ha ([4]; 250 g ai/ha, read-out: Morningglory, Ivy-leaved damage rating (100=total damage to plant; 0=no damage to plant)): 70%
pest or weed control at 15.625 g/ha ([5]; 15.625 g ai/ha, read-out: Pigweed, Redroot damage rating (100=total damage to plant; 0=no damage to plant)): 0%
pest or weed control at 62.5 g/ha ([5]; 62.5 g ai/ha, 100=total damage to plant, 0=no damage to plant, read-out: plant damage rating, Pigweed, Redroot): 0%
pest or weed control at 250 g/ha ([5]; 250 g ai/ha, read-out: Pigweed, Redroot damage rating (100=total damage to plant; 0=no damage to plant)): 30%
pest or weed control at 15.625 g/ha ([6]; 15.625 g ai/ha, read-out: Velvetleaf damage rating (100=total damage to plant; 0=no damage to plant)): 0%
pest or weed control at 62.5 g/ha ([6]; 62.5 g ai/ha, 100=total damage to plant, 0=no damage to plant, read-out: plant damage rating, Velvetleaf): 0%
pest or weed control at 250 g/ha ([6]; 250 g ai/ha, read-out: Velvetleaf damage rating (100=total damage to plant; 0=no damage to plant)): 0%
pest or weed control at 15.625 g/ha ([7]; 15.625 g ai/ha, evaluated after 13 days (100=total damage to plant; 0=no damage to plant), read-out: Barnyardgrass damage rating): 30%
pest or weed control at 62.5 g/ha ([7]; 62.5 g ai/ha, evaluated after 13 days, read-out: Barnyardgrass damage rating (100=total damage to plant; 0=no damage to plant)): 60%
pest or weed control at 250 g/ha ([7]; 250 g ai/ha, evaluated after 13 days, read-out: damage to plant, Barnyardgrass (100=total damage to plant; 0=no damage to plant)): 50%
plant injury at 15.625 g/ha (corn (Zea mays) [8]; 15.625 g ai/ha, evaluated after 13 days (100=total damage to plant; 0=no damage to plant), read-out: Corn damage rating): 10%
plant injury at 62.5 g/ha (corn (Zea mays) [8]; 62.5 g ai/ha, evaluated after 13 days, read-out: Corn damage rating (100=total damage to plant; 0=no damage to plant)): 30%
plant injury at 250 g/ha (corn (Zea mays) [8]; 250 g ai/ha, evaluated after 13 days, read-out: damage to plant, Corn (100=total damage to plant; 0=no damage to plant)): 80%
pest or weed control at 15.625 g/ha ([9]; 15.625 g ai/ha, evaluated after 13 days (100=total damage to plant; 0=no damage to plant), read-out: Foxtail, Giant damage rating): 60%
pest or weed control at 62.5 g/ha ([9]; 62.5 g ai/ha, evaluated after 13 days, read-out: Foxtail, Giant damage rating (100=total damage to plant; 0=no damage to plant)): 60%
pest or weed control at 250 g/ha ([9]; 250 g ai/ha, evaluated after 13 days, read-out: damage to plant, Foxtail, Giant (100=total damage to plant; 0=no damage to plant)): 60%
pest or weed control at 15.625 g/ha ([10]; 15.625 g ai/ha, evaluated after 13 days (100=total damage to plant; 0=no damage to plant), read-out: Morningglory, Ivy-leaved damage rating): 10%
pest or weed control at 62.5 g/ha ([10]; 62.5 g ai/ha, evaluated after 13 days, read-out: Morningglory, Ivy-leaved damage rating (100=total damage to plant; 0=no damage to plant)): 40%
pest or weed control at 250 g/ha ([10]; 250 g ai/ha, evaluated after 13 days, read-out: damage to plant, Morningglory, Ivy-leaved (100=total damage to plant; 0=no damage to plant)): 50%
pest or weed control at 15.625 g/ha ([11]; 15.625 g ai/ha, evaluated after 13 days (100=total damage to plant; 0=no damage to plant), read-out: Pigweed, Redroot damage rating): 0%
pest or weed control at 62.5 g/ha ([11]; 62.5 g ai/ha, evaluated after 13 days, read-out: Pigweed, Redroot damage rating (100=total damage to plant; 0=no damage to plant)): 0%
pest or weed control at 250 g/ha ([11]; 250 g ai/ha, evaluated after 13 days, read-out: damage to plant, Pigweed, Redroot (100=total damage to plant; 0=no damage to plant)): 0%
pest or weed control at 15.625 g/ha ([12]; 15.625 g ai/ha, evaluated after 13 days (100=total damage to plant; 0=no damage to plant), read-out: Velvetleaf damage rating): 0%
pest or weed control at 62.5 g/ha ([12]; 62.5 g ai/ha, evaluated after 13 days, read-out: Velvetleaf damage rating (100=total damage to plant; 0=no damage to plant)): 0%
pest or weed control at 250 g/ha ([12]; 250 g ai/ha, evaluated after 13 days, read-out: damage to plant, Velvetleaf (100=total damage to plant; 0=no damage to plant)): 30%
